Assay results as given in patent US7416736B2, “Antimicrobial compositions” (Janssen Pharmaceutica N.V., priority 2001, dated 2008).

Experiments:
Type in all cases: cell-based
[1] = tested on: Staphylococcus aureus IFO 12732; assay: MIC against bacteria in nutrient broth (Working Example 1); details: weight ratio 0:1 (second component alone), 24 hours at 30° C.
Protocol: (§1) By the following working examples, we describe in greater detail the antimicrobial effectiveness of the antimicrobial compositions of this invention. The term “MIC” as used in these working examples refers to the minimum inhibitory concentration (ppm) of the active ingredient in the antimicrobial compositions. […] The bacterial suspensions for inoculation used in working example 1 were prepared as follows. […] Next, test culture media were prepared by adding each of the varying diluted aqueous solutions (0.2 ml) of the antimicrobial compositions to a nutrient broth culture medium (10 ml). Each of these test culture media was inoculated with the above bacterial suspensions for inoculation (0.1 ml), and after culturing for 24 hours at 30° C. Then, the presence or absence of bacteria growth was assessed by visually observing the turbidity of the culture medium.

[2] = tested on: Escherichia coli IFO 3972; assay: as above; details: weight ratio 0:1 (second component alone), 24 hours at 30° C.
Protocol: as §1

[3] = tested on: Chlorella pyrenoidosa NIES 226; assay: MIC against algae on Bold's Basal agar (Working Example 3); details: weight ratio 0:1 (second component alone); 14 days at 25° C. and 1500 lux
Protocol: By the following working examples, we describe in greater detail the antimicrobial effectiveness of the antimicrobial compositions of this invention. The term “MIC” as used in these working examples refers to the minimum inhibitory concentration (ppm) of the active ingredient in the antimicrobial compositions. […] The algae suspensions for inoculation used in working example 3 were prepared as follows. Bold's Basal liquid culture medium (50 ml) was inoculated with Chlorella pyrenoidosa NIES 226, it was shake-cultured for 14 days at 25° C., and algae suspensions for inoculation was thus prepared. […] Next, test culture media were prepared by adding each of the varying diluted aqueous solutions (0.1 ml) of these antimicrobial compositions to Bold's Basal agar culture medium (15 ml). Each of these test culture media was inoculated with the above algae suspensions for inoculation (1 ml), and after culturing for 14 days at 25° C. and 1500 lux. Then, the presence or absence of algae growth on each culture medium was observed visually. […] Table 5 lists the MIC, for algae, of the antimicrobial composition of each weight ratio.

[4] = tested on: Aspergillus niger IFO 6341; assay: MIC against fungi on potato dextrose agar (Working Example 2); details: weight ratio 0:1 (second component alone), 7 days at 28° C.; for MIC: Aspergillus niger, IFO6341, 168 h, read-out: Minimum inhibitory concentration (ppm) against Aspergillus niger
Protocol: (§2) By the following working examples, we describe in greater detail the antimicrobial effectiveness of the antimicrobial compositions of this invention. The term “MIC” as used in these working examples refers to the minimum inhibitory concentration (ppm) of the active ingredient in the antimicrobial compositions. […] The spore suspensions for inoculation used in working example 2 were prepared as follows. Two fungi, Aspergillus niger IFO 6341 and Penicillium funiculosum IFO 6345, were cultured on two potato dextrose agar culture media not containing any biocides, and spores were formed. Next, said fungus spores were dispersed in disinfectant water to which 0.005% lubricant had been added, and two spore suspensions for inoculation were thus prepared. […] Next, test culture media were prepared by adding each of the varying diluted aqueous solutions (0.3 ml) of these antimicrobial compositions to a potato dextrose agar culture medium (15 ml). Each of these test culture media was inoculated with the above spore suspensions for inoculation (1 ml), and after culturing for 7 days at 28° C. Then, the presence or absence of fungus growth on each culture medium was observed visually.

[5] = tested on: Penicillium funiculosum IFO 6345; assay: as above; details: weight ratio 0:1 (second component alone), 7 days at 28° C.; for MIC: Talaromyces funiculosus, IFO6345, 168 h, read-out: Minimum inhibitory concentration (ppm) against Penicillium funiculosum
Protocol: as §2

| MIC ([1]; Staphylococcus aureus, IFO12732, read-out: Minimum inhibitory concentration (ppm) against Staphylococcus aureus) [µg/mL] | MIC ([2]; Escherichia coli, IFO3972, read-out: Minimum inhibitory concentration (ppm) against Escherichia coli) [µg/mL] | Compound | Minimum inhibitory concentration (ppm) against Chlorella pyrenoidosa [3] [ppm] | MIC [4] [µg/mL] | MIC [5] [µg/mL] | Minimum inhibitory concentration (ppm) against Staphylococcus aureus [1] [ppm] | Minimum inhibitory concentration (ppm) against Escherichia coli [2] [ppm] | Minimum inhibitory concentration (ppm) against Aspergillus niger [4] [ppm] | Minimum inhibitory concentration (ppm) against Penicillium funiculosum [5] [ppm] |
| --- | --- | --- | --- | --- | --- | --- | --- | --- | --- |
| 20 | 1000 | Clc1ccc(OCOCC#CI)cc1 [b, 1-chloro-4-[[(3-iodo-2-propynyl)oxy]methoxy] benzene] | 10 | 1 | 4 |  |  |  |  |
|  |  | [O-][n+]1ccccc1[S-].[O-][n+]1ccccc1[S-].[Zn+2] [c, Zinc 2-pyridine thiol-1-oxide] | 20 |  |  | 40 | 40 | 10 | 1 |
|  |  | [Cu+2].[O-][n+]1ccccc1[S-].[O-][n+]1ccccc1[S-] [d, Copper 2-pyridine thiol-1-oxide] | 100 |  |  | 10 | 200 | 400 | 1 |
|  |  | [Na+].[O-][n+]1ccccc1[S-] [e, 2-pyridine thiol-1-oxide sodium salt] | 40 |  |  | 10 | 200 | 400 | 2 |
|  |  | [O-][n+]1ccccc1SSc1cccc[n+]1[O-] [f, 2,2-dithio-bis(pyridine-1-oxide)] | 10 |  |  | 4 | 10 | 10 | 1 |
|  |  | CSc1nc(NC2CC2)nc(NC(C)(C)C)n1 [g, 2-methylthio-4-t-butyl amino-6-cyclopropyl amino-s-triazine] | 0.1 |  |  |  |  |  |  |
|  |  | CCCCNC(=O)OCC#CI [h, 3-iodo-2-propynyl butylcarbamate] | 40 | 1 | 1 |  |  |  |  |
|  |  | CCCCCCCCn1sccc1=O [i, 2-(n-octyl)-3(2H)-isothiazolone] | 20 | 0.4 | 0.2 |  |  |  |  |
